The results in this text go back to PubChem BioAssay AID2165 (The Scripps Research Institute Molecular Screening Center, 2009).

Each structure is given as a SMILES string. pIC50: −log10 of the molar value. Activity calls are given as the source filed them. Cut-off read from the data, not from the text of the source: active = IC50 below about 9 µM; inactive = the rest.

The target in the assay is Tyrosine-protein kinase JAK2 (Homo sapiens) (UniProt O60674). The assay is described as follows: JAK2V617F project follow-up: kinase, reporter, cytotoxicity – HEL and Ba/F3 cells, late-stage follow-up (AID 2165). The settings on record: JAK2V617F panel: kinase, IRF1 reporter.
Tyrosine-protein kinase JAK2 (Homo sapiens), sequence (O60674 whole entry, looked up, change not shown): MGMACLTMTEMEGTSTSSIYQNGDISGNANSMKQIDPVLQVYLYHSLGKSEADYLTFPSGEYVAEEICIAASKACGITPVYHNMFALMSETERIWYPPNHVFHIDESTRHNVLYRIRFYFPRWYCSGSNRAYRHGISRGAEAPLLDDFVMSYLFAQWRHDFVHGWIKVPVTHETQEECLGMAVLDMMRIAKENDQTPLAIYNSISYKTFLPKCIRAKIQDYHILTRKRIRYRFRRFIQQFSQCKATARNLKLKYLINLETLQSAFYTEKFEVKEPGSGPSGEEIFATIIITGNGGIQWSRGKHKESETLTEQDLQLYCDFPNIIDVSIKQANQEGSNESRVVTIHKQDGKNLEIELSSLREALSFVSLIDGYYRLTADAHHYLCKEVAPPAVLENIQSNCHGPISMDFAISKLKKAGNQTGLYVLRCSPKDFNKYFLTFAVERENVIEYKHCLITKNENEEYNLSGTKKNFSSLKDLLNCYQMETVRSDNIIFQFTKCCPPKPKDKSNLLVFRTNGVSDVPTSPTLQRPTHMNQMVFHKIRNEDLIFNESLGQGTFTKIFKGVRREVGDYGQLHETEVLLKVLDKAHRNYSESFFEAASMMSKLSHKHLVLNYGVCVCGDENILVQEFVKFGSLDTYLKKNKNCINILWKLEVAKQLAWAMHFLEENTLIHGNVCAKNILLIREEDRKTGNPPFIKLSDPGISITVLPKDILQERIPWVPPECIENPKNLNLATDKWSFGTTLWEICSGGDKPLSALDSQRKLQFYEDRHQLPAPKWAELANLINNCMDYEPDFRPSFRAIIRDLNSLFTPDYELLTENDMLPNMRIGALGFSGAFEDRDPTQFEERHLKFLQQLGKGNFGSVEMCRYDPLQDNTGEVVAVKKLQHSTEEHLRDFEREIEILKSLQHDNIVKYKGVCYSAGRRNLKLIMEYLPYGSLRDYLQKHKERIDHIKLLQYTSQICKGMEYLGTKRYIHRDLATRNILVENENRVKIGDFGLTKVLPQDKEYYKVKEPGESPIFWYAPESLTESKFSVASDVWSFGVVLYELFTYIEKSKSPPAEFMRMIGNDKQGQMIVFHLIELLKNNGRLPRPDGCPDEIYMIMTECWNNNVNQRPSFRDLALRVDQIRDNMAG

As to `Cc1nn2c(NCc3ccccn3)c3c(nc2c1-c1ccccc1)CCC3`, the pIC50 (Ba/F3, irf1 reporter) was 4.97 and the negative-log IC50 (pIC50) (HEL, irf1 reporter) is 5.02.
`Cc1cccc(NC(=O)c2ccc([N+](=O)[O-])o2)c1`: the negative-log IC50 (pIC50) is 5.20 (Ba/F3, irf1 reporter) and 4.98 (HEL, irf1 reporter).
The matching figures for `CCCn1c(CC)nc([N+](=O)[O-])c1S(=O)(=O)c1ccccc1`: 5.36 and 5.36.
For `COc1ccc(N2CCc3c(C)nc4c(OC)cc(OC)cc4c32)c(OC)c1`, for the setting “Ba/F3, irf1 reporter”, the pIC50 was 5.12.
For the compound `COc1cc(C=C(C#N)C(N)=O)cc(CSc2ccccc2)c1O`, the IC50 reads like this: (Ba/F3, irf1 reporter) > 40 µM (inactive); (HEL, irf1 reporter) > 40 µM (inactive); (JAK2V617F) > 40 µM (inactive).
On to `Cc1cccc(OCC(=O)Nc2cccc(C)c2C)c1`, for which the IC50 (JAK2V617F) was > 40 µM (inactive).
Regarding `CC(C)[C@@H](CO)Nc1nc(Nc2cccc(Cl)c2)c2ncn(C(C)C)c2n1`, the pIC50 (Ba/F3, irf1 reporter) was 6.08; the pIC50 (HEL, irf1 reporter) was 5.95; the pIC50 (JAK2V617F) was 6.04.
Consider `COc1cc2ncc(-c3ccccc3)nc2cc1OC`, for which the IC50 (Ba/F3, irf1 reporter) is > 40 µM (inactive) and the IC50 (JAK2V617F) was > 40 µM (inactive). Further, the pIC50 (HEL, irf1 reporter) was 6.16.
Take `CCC(C)[C@@H](NC(=O)OC(C)(C)C)c1nnc(S(=O)(=O)Cc2cccc(C)c2)o1` (stereo partly drawn): the pIC50 (Ba/F3, irf1 reporter) was 6.62 and the pIC50 (HEL, irf1 reporter) is 4.66.
For `COc1cc2ncnc(Nc3ccc(F)c(F)c3)c2cc1OC`, the IC50 is > 40 µM (inactive) (HEL, irf1 reporter) and > 40 µM (inactive) (JAK2V617F).
Take `O=c1cnn([C@@H]2O[C@H](CO)[C@@H](O)[C@H]2O)c(=O)[nH]1`: the IC50 (Ba/F3, irf1 reporter) is > 40 µM (inactive) and the IC50 (HEL, irf1 reporter) is > 40 µM (inactive).
For `CCN1C/C(=C/c2ccc(OC)c(O)c2)C(=O)/C(=C/c2ccc(OC)c(O)c2)C1`, the pIC50 by setting is: (Ba/F3, irf1 reporter) 5.63; (HEL, irf1 reporter) 5.56.
As for `O=C(NC1C=CS(=O)(=O)C1)c1sc2ccccc2c1Cl` (stereo not drawn), the negative logarithm of the IC50 (pIC50) (Ba/F3, irf1 reporter) was 5.05. Besides, the IC50 (HEL, irf1 reporter) is > 40 µM (inactive).
As to `COc1ccccc1N(C(=O)CCl)c1cn(C(C)=O)c2ccccc12`, the negative-log IC50 (pIC50) (Ba/F3, irf1 reporter) is 5.66 and the pIC50 (HEL, irf1 reporter) is 5.03.
For `Cc1ccc(C)c(Sc2ccc(NC(=O)CCl)cc2)c1`, in that order: 5.66 and 4.74.
On to `CCOc1ccc(Nc2nc(N)nc(CCl)n2)cc1`, for which the negative-log IC50 (pIC50) reads like this: (Ba/F3, irf1 reporter) 4.95; (HEL, irf1 reporter) 6.34.
Turning to `COc1ccccc1/C=C/C(=O)c1c2c(c(C)[nH]c1=O)CCCC2`, the IC50 (Ba/F3, irf1 reporter) was > 40 µM (inactive). The pIC50 is 5.89 (HEL, irf1 reporter) and 5.90 (JAK2V617F).
`CN(C)C(=S)SSC(=S)N(C)C`: the pIC50 (Ba/F3, irf1 reporter) was 5.62 and the pIC50 (HEL, irf1 reporter) was 4.87.
For the compound `O=C(/C(=N/N=C/c1ccc(O)c(O)c1)c1ccccc1)c1ccccc1`, the pIC50 reads like this: (Ba/F3, irf1 reporter) 5.18; (HEL, irf1 reporter) 5.02.
For `Cc1nn(Cc2ccc(Cl)cc2Cl)c(C)c1NC(=O)CCl`, in that order: 5.06 and 5.07.
Consider `CCS(=O)(=O)c1ccc(O)c(NC(=O)COc2cccc(C)c2)c1`, for which the IC50 (JAK2V617F) was > 40 µM (inactive).
Turning to `COc1cc2ncnc(Nc3ccccc3)c2cc1OC`, under “HEL, irf1 reporter”, the pIC50 was 5.23. The IC50 (JAK2V617F) is > 40 µM (inactive).
Regarding `N#C/C(=C\c1ccc(O)c(O)c1)C(=O)NCCCCc1ccccc1`, the pIC50 by setting is: (Ba/F3, irf1 reporter) 6.60; (HEL, irf1 reporter) 5.48; (JAK2V617F) 6.12.
For the compound `COCCOc1cc2nc[nH]c(=O)c2cc1OCCOC`, the IC50 is > 40 µM (inactive) (HEL, irf1 reporter) and > 40 µM (inactive) (JAK2V617F).
`Cc1ccc(O)c(NC(=O)COc2cc(C)c(Cl)c(C)c2)c1`: the IC50 (JAK2V617F) is > 40 µM (inactive).
Regarding `O=S(=O)(c1cnc(Cl)c(Br)c1)N1CCc2ccccc21`, the pIC50 (Ba/F3, irf1 reporter) is 5.18. In addition, the IC50 (HEL, irf1 reporter) is > 40 µM (inactive).
As for `Oc1ccc(/C=N/N2CCN(C3c4ccccc4-c4ccccc43)CC2)cc1O`, the pIC50 was 5.61 (Ba/F3, irf1 reporter) and 5.29 (HEL, irf1 reporter).
Regarding `Cc1cc(SCC(=O)N/N=C/c2ccc(O)c(O)c2)c(C)cc1Br`, for the setting “Ba/F3, irf1 reporter”, the pIC50 was 5.70. Also, the IC50 (HEL, irf1 reporter) is > 40 µM (inactive).
For `COc1ccc(C2=Nn3c(nnc3C3CCCCC3)SC2)cc1OC`, the pIC50 by setting is: (Ba/F3, irf1 reporter) 5.05; (HEL, irf1 reporter) 4.87.
`O=C(CCl)N(C/C=C/c1ccccc1)c1ccc2c(c1)OCCO2`: the negative-log IC50 (pIC50) (Ba/F3, irf1 reporter) was 6.30 and the pIC50 (HEL, irf1 reporter) was 4.92.
As for `COc1cc(/C=C(\C#N)C(N)=O)cc(CSc2nc3ccccc3s2)c1O`, the pIC50 reads like this: (Ba/F3, irf1 reporter) 5.47; (HEL, irf1 reporter) 5.38; (JAK2V617F) 5.17.
Regarding `COc1cc2ncnc(Sc3ccc(C)cc3)c2cc1OC`, where the note is “HEL, irf1 reporter”, the pIC50 is 5.34. Also, the IC50 (JAK2V617F) is > 40 µM (inactive).
`COc1cc2ncnc(NC(C)C)c2cc1OC`: the IC50 was > 40 µM (inactive) (HEL, irf1 reporter) and > 40 µM (inactive) (JAK2V617F).
On to `Cc1ccc(O)c(NC(=O)COc2ccc(C)c(C)c2)c1`, for which, for the setting “JAK2V617F”, the IC50 was > 40 µM (inactive).
Regarding `COc1ccc(Nc2nc(N)nc(CCl)n2)cc1`, the IC50 (Ba/F3, irf1 reporter) is > 40 µM (inactive). In addition, the pIC50 (HEL, irf1 reporter) was 5.40.
As for `O=C1C=CC(=O)N1CCNc1ncc(C(F)(F)F)cc1Cl`, the pIC50 reads like this: (Ba/F3, irf1 reporter) 6.16; (HEL, irf1 reporter) 5.01.

Usually pIC50 stands for the IC50 on a negative log10 scale, so that one unit is a factor of ten. A word on the IC50: it is the concentration that gives 50% inhibition.
